# Data from patent publication US20240342292A1, “Compounds for the Degradation of EGFR Kinase” (BeiGene Switzerland GmbH, priority 2021, published 2024).
# What was measured:
# [1] = tested on: Del19/T790M/C797S EGFR; assay: EGFR degradation HTRF assay in H1975-clone #28 (DTC) cells; format: cell-based; details: H1975 # 28 DTC (Del19/T790M/C797S), 16h treatment; for DC50: HTRF; for Dmax (%): maximum percentage of degradation
# In short: (§1)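 Engineered H1975 lines (exogenous mutant EGFR, endogenous copies knocked out, single clones sequence-verified); 16 h compound, 37 °C/5% CO2, 0.2% DMSO; top 10 uM, 5-fold, 8 pts; lysis 1 h RT, HTRF antibodies overnight RT; 4-parameter logistic fit → DC50.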
# [2] = target: T1, L858R/T790M/C797S EGFR (Homo sapiens, UniProt P00533, C797S/L858R/T790M); assay: EGFR degradation HTRF assay in H1975-clone #25 (LTC) cells; format: cell-based; details: 16h treatment; for DC50 / Dmax (%): H1975 # 25-LTC (L858R/T790M/C797S); for DC50: HTRF; for Dmax: NCI-H1975, H1975 # 25-LTC (L858R/T790M/C797S); for Dmax / Dmax (%): maximum percentage of degradation
# T1 construct: expressed in transfected cells; host or cells: H1975 clone #25 (lentiviral over-expression, endogenous EGFR knocked out by sgRNA)
# In short: as §1
Compound,DC50 [1],DC50 [2],Dmax [2],Dmax (%) [1],Dmax (%) [2]
"Cc1cc2cc(n1)-c1cnn(C)c1OCC[C@H]1C[C@@H]1CN1/C(=N/C2=O)Nc2ccc(N3CCN(CC4CN(c5cc(F)c([C@H]6CCC(=O)NC6=O)c(F)c5)C4)CC3)cc21 [Example 461, (R)-3-(4-(3-((4-((7^1S,7^2R,E)-1^1,2^6-dimethyl-3-oxo-5^2,5^3-dihydro-1^1H,5^1H-10-oxa-4-aza-5(2,1)-benzo[d]imidazola-2(2,4)-pyridina-1(4,5)-pyrazola-7(1,2)-cyclopropanacyclodecaphane-5^6-yl)piperazin-1-yl)methyl)azetidin-1-yl)-2,6-difluorophenyl)piperidine-2,6-dione]",0.702 nM,1.64 nM,90.6%,84.7%,
"Cc1cc2cc(n1)-c1cnn(C)c1OCCC[C@@H](C)CN1/C(=N/C2=O)Nc2ccc(N3CCN(C[C@H]4CCN(c5cc(F)c([C@H]6CCC(=O)NC6=O)c(F)c5)C4)CC3=O)cc21 [Example 464, (R)-3-(2,6-difluoro-4-((R)-3-((3-oxo-4-((R,E)-1^1,2^6,7-trimethyl-3-oxo-5^2,5^3-dihydro-1^1H,5^1H-11-oxa-4-aza-5(2,1)-benzo[d]imidazola-2(2,4)-pyridina-1(4,5)-pyrazolacycloundecaphane-5^6-yl)piperazin-1-yl)methyl)pyrrolidin-1-yl)phenyl)piperidine-2,6-dione]",0.678 nM,0.646 nM,85%,82.71%,
"COC[C@@H]1CN(c2ccc3c(c2)N2C[C@H]4C[C@@H]4CCOc4c(cnn4C)-c4cc(cc(C)n4)C(=O)/N=C/2N3)CCN1C1CCN(c2cc(F)c([C@H]3CCC(=O)NC3=O)c(F)c2)CC1 [Example 468, (R)-3-(4-(4-((S)-4-((7'S,7^2R,E)-1^1,2^6-dimethyl-3-oxo-5^2,5^3-dihydro-1^1H,5^1H-10-oxa-4-aza-5(2,1)-benzo[d]imidazola-2(2,4)-pyridina-1(4,5)-pyrazola-7(1,2)-cyclopropanacyclodecaphane-5^6-yl)-2-(methoxymethyl)piperazin-1-yl)piperidin-1-yl)-2,6-difluorophenyl)piperidine-2,6-dione]",2.25 nM,2.12 nM,88.1%,85.54%,
"(R)-3-(2,6-difluoro-4-(3-(7-(((R,E)-1^1,2^6,7-trimethyl-3-oxo-5^2,5^3-dihydro-1^1H,5^1H-11-oxa-4-aza-5(2,1)-benzo[d]imidazola-2(2,4)-pyridina-1(4,5)-pyrazolacycloundecaphane-5^6-yl)methyl)-2,7-diazaspiro[3.5]nonane-2-carbonyl)azetidin-1-yl)phenyl)piperidine-2,6-dione [Example 25]",0.6 nM,0.4 nM,,86.3%,93.6%

# Continued, in another order:
DC50 [1],DC50 [2],Dmax [2],Compound,Dmax (%) [1],Dmax (%) [2]
0.624 nM,0.431 nM,84.1%,"Cc1cc2cc(n1)-c1cnn(C)c1OCCC[C@@H](C)CN1/C(=N/C2=O)Nc2ccc(NC3CN(C4CCN(c5cc(F)c([C@H]6CCC(=O)NC6=O)c(F)c5)CC4)C3)cc21 [Example 459, (R)-3-(2,6-difluoro-4-(4-(3-(((R,E)-1^1,2^6,7-trimethyl-3-oxo-5^2,5^3-dihydro-1^1H,5^1H-11-oxa-4-aza-5(2,1)-benzo[d]imidazola-2(2,4)-pyridina-1(4,5)-pyrazolacycloundecaphane-5^6-yl)amino)azetidin-1-yl)piperidin-1-yl)phenyl)piperidine-2,6-dione]",73.95%,
0.604 nM,0.624 nM,91.8%,"Cc1cc2cc(n1)-c1cnn(C)c1OCC[C@H]1C[C@@H]1CN1/C(=N/C2=O)Nc2ccc(N3CCN(C4CCN(c5cnc(C6CCC(=O)NC6=O)cc5C)CC4)CC3)cc21 (stereo partly drawn) [Example 463, 3-(5-(4-(4-((7'S,7^2R,E)-1^1,2^6-dimethyl-3-oxo-5^2,5^3-dihydro-1^1H,5^1H-10-oxa-4-aza-5(2,1)-benzo[d]imidazola-2(2,4)-pyridina-1(4,5)-pyrazola-7(1,2)-cyclopropanacyclodecaphane-5^6-yl)piperazin-1-yl)piperidin-1-yl)-4-methylpyridin-2-yl)piperidine-2,6-dione]",90.22%,
0.319 nM,0.472 nM,94.8%,"Cc1cc2cc(n1)-c1cnn(C)c1OCC[C@H]1C[C@@H]1CN1/C(=N/C2=O)Nc2ccc(N3CCN(C4CCN(c5ccc(C6CCC(=O)NC6=O)nc5C)CC4)CC3)cc21 (stereo partly shown) [Example 465, 3-(5-(4-(4-((7^1S,7^2R,E)-1^1,2^6-dimethyl-3-oxo-5^2,5^3-dihydro-1^1H,5^1H-10-oxa-4-aza-5(2,1)-benzo[d]imidazola-2(2,4)-pyridina-1(4,5)-pyrazola-7(1,2)-cyclopropanacyclodecaphane-5^6-yl)piperazin-1-yl)piperidin-1-yl)-6-methylpyridin-2-yl)piperidine-2,6-dione]",90.39%,
0.594 nM,0.794 nM,82.7%,"Cc1cc2cc(n1)-c1cnn(C)c1OCC[C@H]1C[C@@H]1CN1/C(=N/C2=O)Nc2ccc(N3CCN(C4CCN(c5ccc(C6CCC(=O)NC6=O)nc5)CC4)CC3)cc21 (stereo partly drawn) [Example 469, 3-(5-(4-(4-((7'S,7^2R,E)-1^1,2^6-dimethyl-3-oxo-5^2,5^3-dihydro-1^1H,5^1H-10-oxa-4-aza-5(2,1)-benzo[d]imidazola-2(2,4)-pyridina-1(4,5)-pyrazola-7(1,2)-cyclopropanacyclodecaphane-5^6-yl)piperazin-1-yl)piperidin-1-yl)pyridin-2-yl)piperidine-2,6-dione]",76.63%,
0.617 nM,0.849 nM,92.1%,"Cc1cc2cc(n1)-c1cnn(C)c1OCC[C@@H]1C[C@H]1CN1/C(=N/C2=O)Nc2ccc(N3CCN(C4CCN(c5cnc(C6CCC(=O)NC6=O)cc5C)CC4)CC3)cc21 (stereo partly shown) [Example 470, 3-(5-(4-(4-((7^1R,7^2S,E)-1^1,2^6-dimethyl-3-oxo-5^2,5^3-dihydro-1^1H,5^1H-10-oxa-4-aza-5(2,1)-benzo[d]imidazola-2(2,4)-pyridina-1(4,5)-pyrazola-7(1,2)-cyclopropanacyclodecaphane-5^6-yl)piperazin-1-yl)piperidin-1-yl)-4-methylpyridin-2-yl)piperidine-2,6-dione]",86.76%,
0.587 nM,0.28 nM,,"(R,E)-N—((S)-1-(4-((R)-2,6-dioxopiperidin-3-yl)-3,5-difluorophenethyl)azepan-4-yl)-N,1^1,2^6,7-tetramethyl-3-oxo-5^2,5^3-dihydro-1^1H,5^1H-11-oxa-4-aza-5(2,1)-benzo[d]imidazola-2(2,4)-pyridina-1(4,5)-pyrazolacycloundecaphane-5^6-carboxamide [Example 340]",83.73%,91.69%
